Patent US8314132B2, “5-aryl-4-(5-substituted 2,4-dihydroxyphenyl)-1,2,3-thiadiazoles as inhibitors of Hsp90 chaperone and the intermediates for production thereof” (Biotechnologijos Institutas, priority 2008, dated 2012)

Experiments:
[1] = system: U2OS (osteosarcoma) cells; assay: Growth inhibition (GI50), XTT cell viability assay, U2OS; assay type: cell-based; conditions: Homo sapiens, 72 h, 3 days, read-out: growth inhibition constants (GI50), U2OS
Experimental: (§1) The growth inhibition constants of the compounds were determined in two cancer cell lines: U2OS (osteosarcoma) and HeLa (cervical carcinoma). Cells were maintained in DMEM (HeLa) and a 50-50% mixture of DMEM and F-12 media (U2OS) supplemented with 10% fetal bovine serum. Stock solutions (20 mM) of the tested compounds were prepared in 100% dimethyl-sulfoxide (DMSO). Cells, cultured in 24-well plates, were subjected to a range of concentrations of the compounds ([…]) at 0.25% DMSO. After 3 days, cell viability was assayed using XTT (sodium salt of 2,3-bis[2-Methoxy-4-nitro-5-sulfophenyl]-2H-tetrazolium-5-carboxyanilide inner salt) and PMS (phenazine methosulfate) reagents (Scudiero et al. 1988. Cancer Res. 48, 4827-4833). Stock solutions of XTT (1 mg/ml) and PMS (1.53 mg/ml) were prepared in Hank's buffered saline (HBS). Culture medium in each well was replaced by 100 μl of OptiMEM media (Life technologies) containing 35 μg/ml XTT and 0.27 μg/ml PMS. Cells were returned to the incubator for 15-20 min. Quantity of viable cells in each well was evaluated spectrophotometrically measuring the absorbance of XTT formazan at 470 nm. Each experiment was run in duplicate.

[2] = system: HeLa (cervical carcinoma) cells; assay: Growth inhibition (GI50), XTT cell viability assay, HeLa; assay type: cell-based; conditions: Homo sapiens, 72 h, 3 days, read-out: GI50 constants, HeLa
Experimental: as §1

CCOc1ccc(-c2snnc2-c2cc(Cl)c(O)cc2O)cc1 [compound 3b, 4-(5-chloro-2,4-dihydroxyphenyl)-5-(4-ethoxyphenyl)-1,2,3-thiadiazole]
GI50 [1]: 15.1 ± 3.4 µM | GI50 [2]: 4.2 ± 0.4 µM

Cc1ccc(-c2snnc2-c2cc(Cl)c(O)cc2O)cc1 [compound 3c, 4-(5-chloro-2,4-dihydroxyphenyl)-5-(4-methylphenyl)-1,2,3-thiadiazole]
GI50 [1]: 7.1 ± 0.1 µM | GI50 [2]: 3.3 ± 0.1 µM

COc1ccc(-c2snnc2-c2cc(Cl)c(O)cc2O)cc1 [compound 3a, 4-(5-chloro-2,4-dihydroxyphenyl)-5-(4-methoxyphenyl)-1,2,3-thiadiazole]
GI50 [1]: 8.4 ± 1.2 µM | GI50 [2]: 2.5 ± 0.1 µM

COc1ccc(-c2snnc2-c2cc(Cl)c(O)cc2O)cc1OC [compound 3d, 4-(5-chloro-2,4-dihydroxyphenyl)-5-(3,4-dimethoxyphenyl)-1,2,3-thiadiazole]
GI50 [1]: 11.5 ± 0.1 µM | GI50 [2]: 3.6 ± 0.3 µM

CCOc1ccc(-c2snnc2-c2cc(CC)c(O)cc2O)cc1 [compound 3e, 4-(5-ethyl-2,4-dihydroxyphenyl)-5-(4-ethoxyphenyl)-1,2,3-thiadiazole]
GI50 [1]: 0.65 ± 0.08 µM | GI50 [2]: 0.7 ± 0.04 µM
